Values after ≈ are worked out from the molar mass of the structure shown.
How the values were obtained:
[1] = Kinetic solubility of the compound in phosphate buffer at pH 6.5 by nephelometry; format: physicochemical; settings: read-out: Kinetic_solubility
[2] = Kinetic solubility of the compound in 0.01 M HCl at pH 2 by nephelometry; format: physicochemical; settings: read-out: Kinetic_solubility
[3] = Apparent permeability across apical to basolateral side in human Caco2 cells measured over 90 mins by LC-MS/MS analysis; format: ADME, cell-based; settings: Caco-2
[4] = Cysteine reactivity assessed as induction of confirmational change in 13C-methyl-labeled La antigen at 400 uM incubated for 1 hr at 37 degC followed by incubation at 30 degC for 15 mins in presence of DTT by ALARM NMR assay
[5] = Cysteine reactivity assessed as induction of confirmational change in 13C-methyl-labeled La antigen at 400 uM incubated for 1 hr at 37 degC followed by incubation at 30 degC for 15 mins in absence of DTT by ALARM NMR assay
[6] = Cmax in Swiss mouse at 30 mg/kg, ip by UPLC analysis; format: ADME, organism-based; set-up: dose 30 mg/kg, route intraperitoneal; settings: in vivo
[7] = Tmax in Swiss mouse at 30 mg/kg, ip by UPLC analysis; format: ADME, organism-based; settings: in vivo
[8] = Cmax in Sprague-Dawley rat at 33 mg/kg, po administered as suspension using HPMC formulation; format: ADME, organism-based; set-up: dose 33 mg/kg, route oral; settings: in vivo
[9] = Tmax in Sprague-Dawley rat at 31 mg/kg, po using PEG400/Solutol HS-15/water formulation; format: ADME, organism-based; settings: in vivo
[10] = Tmax in Sprague-Dawley rat at 33 mg/kg, po administered as suspension using HPMC formulation; format: ADME, organism-based; settings: in vivo
[11] = Cmax in Sprague-Dawley rat at 31 mg/kg, po using PEG400/Solutol HS-15/water formulation; format: ADME, organism-based; set-up: dose 31 mg/kg, route oral; settings: in vivo
[12] = AUC (0 to infinity) in Sprague-Dawley rat at 31 mg/kg, po using PEG400/Solutol HS-15/water formulation; format: ADME, organism-based; set-up: dose 31 mg/kg, time infinity, route oral; settings: in vivo
[13] = Drug excretion in Sprague-Dawley rat urine at 33 mg/kg, po administered as suspension using HPMC formulation; format: ADME, organism-based; settings: read-out: Drug excretion
[14] = AUC (0 to infinity) in Sprague-Dawley rat at […], iv; format: ADME, organism-based; set-up: dose 2.9 mg/kg, time infinity, route intravenous; settings: in vivo
in vivo = settings: Sprague-Dawley, rat, po, 33 mg/kg
[15] = AUC (0 to infinity) in Sprague-Dawley rat at 33 mg/kg, po administered as suspension using HPMC formulation; format: ADME, organism-based; set-up: dose 33 mg/kg, route oral, time infinity; settings: in vivo
[16] = Drug excretion in Sprague-Dawley rat urine at […], iv; format: ADME, organism-based; settings: in vivo, BLD = below limit of detection
[17] = Volume of distribution at steady state in Sprague-Dawley rat at […], iv; format: ADME, organism-based; settings: in vivo, read-out: Vdss
[18] = Drug excretion in Sprague-Dawley rat urine at 31 mg/kg, po using PEG400/Solutol HS-15/water formulation; format: ADME, organism-based; settings: read-out: Drug excretion

| Compound | solubility kinetic [1] | solubility kinetic [2] | Papp A→B at […] [3] | other results |
| --- | --- | --- | --- | --- |
| C=CCOc1ccc(F)c(C(=O)NNS(=O)(=O)c2ccccc2)c1 | 50 to 100 µg/mL (≈ 143 to 285 µM) | 50 to 100 µg/mL (≈ 143 to 285 µM) | – | – |
| CCOc1cc(C)c(F)c(C(=O)NNS(=O)(=O)c2ccccc2)c1 | 12.5 to 25 µg/mL (≈ 35.5 to 70.9 µM) | 12.5 to 25 µg/mL (≈ 35.5 to 70.9 µM) | 65 ×10⁻⁶ cm/s | – |
| CCOc1cc(C)cc(C(=O)NNS(=O)(=O)c2ccccc2F)c1 | 12.5 to 25 µg/mL (≈ 35.5 to 70.9 µM) | 12.5 to 25 µg/mL (≈ 35.5 to 70.9 µM) | 47 ×10⁻⁶ cm/s | Drug metabolism [4]: Metabolite_Notdetected; Drug metabolism [5]: Metabolite_Notdetected |
| Cc1cc(OC(C)C)cc(C(=O)NNS(=O)(=O)c2ccccc2F)c1 | 12.5 to 25 µg/mL (≈ 34.1 to 68.2 µM) | 12.5 to 25 µg/mL (≈ 34.1 to 68.2 µM) | – | – |
| Cc1cc(-c2ncccn2)cc(C(=O)NNS(=O)(=O)c2ccccc2)c1F | 50 to 100 µg/mL (≈ 129 to 259 µM) | 50 to 100 µg/mL (≈ 129 to 259 µM) | 77 ×10⁻⁶ cm/s | Cmax [6]: 12.1 µM; Tmax [7]: 0.28 h |
| Cc1cc(-n2nccn2)cc(C(=O)NNS(=O)(=O)c2ccccc2)c1F | 25 to 50 µg/mL (≈ 66.6 to 133 µM) | 25 to 50 µg/mL (≈ 66.6 to 133 µM) | 53 ×10⁻⁶ cm/s | – |
| Cc1cc(-c2ccccn2)cc(C(=O)NNS(=O)(=O)c2ccccc2)c1F | 6.3 to 12.5 µg/mL (≈ 16.3 to 32.4 µM) | 50 to 100 µg/mL (≈ 130 to 259 µM) | 63 ×10⁻⁶ cm/s | – |
| O=C(NNS(=O)(=O)c1ccccc1F)c1cccc(I)c1 | – | – | 60.4 ×10⁻⁶ cm/s | – |
| O=C(NNS(=O)(=O)c1ccccc1F)c1cccc(-c2ccccn2)c1 | 12.5 to 25 µg/mL (≈ 33.7 to 67.3 µM) | 50 to 100 µg/mL (≈ 135 to 269 µM) | – | – |
| CC(C)Oc1cccc(C(=O)NNS(=O)(=O)c2ccccc2F)c1 | 50 to 100 µg/mL (≈ 142 to 284 µM) | 50 to 100 µg/mL (≈ 142 to 284 µM) | – | – |
| O=C(NNS(=O)(=O)c1ccccc1F)c1cccc(-c2ccco2)c1 | – | – | 55.3 ×10⁻⁶ cm/s | – |
| CCCOc1cccc(C(=O)NNS(=O)(=O)c2ccccc2F)c1 | – | – | 77.3 ×10⁻⁶ cm/s | – |

The next lines start with results.

| solubility kinetic [1] | solubility kinetic [2] | Papp A→B at […] [3] | Compound | other results |
| --- | --- | --- | --- | --- |
| 50 to 100 µg/mL (≈ 139 to 277 µM) | 50 to 100 µg/mL (≈ 139 to 277 µM) | – | O=C(NNS(=O)(=O)c1ccccc1F)c1cccc(-n2cccn2)c1 | – |
| 12.5 to 25 µg/mL (≈ 33.4 to 66.8 µM) | 12.5 to 25 µg/mL (≈ 33.4 to 66.8 µM) | – | Cc1cc(C(=O)NNS(=O)(=O)c2ccccc2F)cc(-n2cccn2)c1 | – |
| 6.3 to 12.5 µg/mL (≈ 16.8 to 33.4 µM) | 6.3 to 12.5 µg/mL (≈ 16.8 to 33.4 µM) | – | Cc1cc(C(=O)NNS(=O)(=O)c2ccccc2F)cc(-c2ccco2)c1 | – |
| 25 to 50 µg/mL (≈ 66.1 to 132 µM) | 25 to 50 µg/mL (≈ 66.1 to 132 µM) | – | O=C(NNS(=O)(=O)c1ccccc1F)c1cc(F)cc(-n2cccn2)c1 | – |
| 12.5 to 25 µg/mL (≈ 32.4 to 64.9 µM) | > 100 µg/mL | – | Cc1cc(C(=O)NNS(=O)(=O)c2ccccc2F)cc(-c2ccccn2)c1 | – |
| 6.3 to 12.5 µg/mL (≈ 16.8 to 33.4 µM) | 6.3 to 12.5 µg/mL (≈ 16.8 to 33.4 µM) | 48 ×10⁻⁶ cm/s | Cc1cc(-n2cccn2)cc(C(=O)NNS(=O)(=O)c2ccccc2)c1F | – |
| – | – | 27.8 ×10⁻⁶ cm/s | O=C(NNS(=O)(=O)c1ccccc1F)c1cc(Cl)cc(-c2cccs2)c1 | – |
| 25 to 50 µg/mL (≈ 64.2 to 128 µM) | 25 to 50 µg/mL (≈ 64.2 to 128 µM) | 60 ×10⁻⁶ cm/s | O=C(NNS(=O)(=O)c1ccccc1F)c1cc(F)cc(-c2ccccn2)c1 [WM-1119] | Cmax [8]: 2.9 µM; Drug metabolism [4]: Metabolite_Notdetected; Tmax [9]: 1 h; Tmax [10]: 1 h; Cmax [11]: 14 µM; AUC(0-inf) [12]: 38 µM·h; dose excreted [13]: 0.009%; AUC(0-inf) [14]: 6.2 µM·h; Drug metabolism [5]: Metabolite_Notdetected; bioavailability (in vivo): 18%; AUC(0-inf) [15]: 13 µM·h; Drug excretion [16]: Bld; Vd [17]: 0.72 L/kg; dose excreted [18]: 0.078% |

Source: ChEMBL document CHEMBL4402574, “Discovery of Acylsulfonohydrazide-Derived Inhibitors of the Lysine Acetyltransferase, KAT6A, as Potent Senescence-Inducing Anti-Cancer Agents” (J Med Chem, 2020)
